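Grown in 96-well plates, cells were treated for 48 hours with each compound at five concentrations. Insufficient inhibition: endpoint recorded as highest concentration tested. GI50 marks 50% less growth.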 Activity calls are given as the source filed them. No stated cut-off is given here; in the data, active = GI50 up to about 1.1 µM and inactive = higher.
What was measured:
Test in all cases: NCI tumour cell line growth inhibition, 48 h
U-251 = tested on: U-251
HCT-116 = tested on: HCT-116
UACC-257 = tested on: UACC-257
SF-295 = tested on: SF-295
786-0 = tested on: 786-0
OVCAR-3 = tested on: OVCAR-3
M14 = tested on: M14
OVCAR-5 = tested on: OVCAR-5
KM12 = tested on: KM12
HOP-62 = tested on: HOP-62
SK-OV-3 = tested on: SK-OV-3
HCT-15 = tested on: HCT-15
A549 = tested on: A549
UACC-62 = tested on: UACC-62
HOP-92 = tested on: HOP-92
COLO 205 = tested on: COLO 205
SK-MEL-2 = tested on: SK-MEL-2
IGROV-1 = tested on: IGROV-1
K562 = tested on: K562
SNB-19 = tested on: SNB-19

Compound | GI50 (U-251) | GI50 (HCT-116) | GI50 (UACC-257) | GI50 (SF-295) | GI50 (786-0) | GI50 (OVCAR-3) | GI50 (M14) | GI50 (OVCAR-5) | GI50 (KM12) | GI50 (HOP-62) | GI50 (SK-OV-3) | GI50 (HCT-15) [µM] | GI50 (A549) | GI50 (UACC-62) | GI50 (HOP-92) | GI50 (COLO 205) | GI50 (SK-MEL-2) | GI50 (IGROV-1) | GI50 (K562) | GI50 (SNB-19)
C=CC(=O)NCCC(=O)OCn1cc(F)c(=O)[nH]c1=O | 18 µM (inactive) | 3.24 µM (inactive) | 7.11 µM (inactive) | 15.5 µM (inactive) | 2.92 µM (inactive) | 10.5 µM (inactive) | 9.89 µM (inactive) | 20.6 µM (inactive) | 5.48 µM (inactive) | 4.98 µM (inactive) | 16.3 µM (inactive) | 6.14 | 2.36 µM (inactive) | 4.08 µM (inactive) | 8.49 µM (inactive) | 1.37 µM (inactive) | 7.93 µM (inactive) | 4.33 µM (inactive) | 9.66 µM (inactive) | 39.4 µM (inactive)
CO/C(=N\N=C\c1cccc(C(F)(F)F)c1)c1ccncc1 | 5.14 µM (inactive) | 5.52 µM (inactive) | 14 µM (inactive) | 1.76 µM (inactive) | 5.77 µM (inactive) | 10.7 µM (inactive) | 6.3 µM (inactive) | 32.5 µM (inactive) | 5.19 µM (inactive) | 2.93 µM (inactive) | 6.89 µM (inactive) | 2.45 | 8.09 µM (inactive) | 4.28 µM (inactive) | 23.3 µM (inactive) | 13.5 µM (inactive) | 2.89 µM (inactive) | 10 µM (inactive) | 3.94 µM (inactive) | 9.08 µM (inactive)
S=C(N/N=C/c1ccccn1)N1CC2CCC(CC2)C1 | < 0.01 µM (active) | < 0.01 µM (active) | < 0.01 µM (active) | < 0.0128 µM (active) | < 0.01 µM (active) | < 0.01 µM (active) | < 0.01 µM (active) | < 0.024 µM (active) | < 0.01 µM (active) | < 0.01 µM (active) | < 0.01 µM (active) | < 0.01 | < 0.01 µM (active) | < 0.0365 µM (active) | 0.0568 µM (active) | < 0.01 µM (active) | < 0.0471 µM (active) | < 0.01 µM (active) | < 0.01 µM (active) | 0.161 µM (active)
COc1ccc(CCNC(=O)CCc2ccccc2CO)cc1OC | > 100 µM (inactive) | > 100 µM (inactive) | > 100 µM (inactive) | > 100 µM (inactive) | > 100 µM (inactive) | > 100 µM (inactive) | > 100 µM (inactive) | > 100 µM (inactive) | > 100 µM (inactive) | > 100 µM (inactive) | > 100 µM (inactive) | > 100 | > 100 µM (inactive) | > 100 µM (inactive) | > 100 µM (inactive) | > 100 µM (inactive) | > 100 µM (inactive) | > 100 µM (inactive) | > 100 µM (inactive) | > 100 µM (inactive)
CCOC(=O)C1CCCCN1CCc1c[nH]c2ccccc12 (stereo not given) | > 100 µM (inactive) | 60 µM (inactive) | > 100 µM (inactive) | 66.2 µM (inactive) | > 100 µM (inactive) | > 100 µM (inactive) | > 100 µM (inactive) | > 100 µM (inactive) | > 100 µM (inactive) | > 100 µM (inactive) | > 100 µM (inactive) | 93.1 | 74.6 µM (inactive) | > 100 µM (inactive) | 16 µM (inactive) | > 100 µM (inactive) | > 100 µM (inactive) | > 100 µM (inactive) | 72.3 µM (inactive) | > 100 µM (inactive)
CC(=O)Oc1cccc2c1C(=O)c1c(OC(C)=O)cc(C)cc1C2=O | 30.2 µM (inactive) | 33.6 µM (inactive) | > 100 µM (inactive) | 29.1 µM (inactive) | 20.4 µM (inactive) | 16.4 µM (inactive) | 81.7 µM (inactive) | > 100 µM (inactive) | 39.5 µM (inactive) | 32.4 µM (inactive) | 34 µM (inactive) | 40.6 | 47.5 µM (inactive) | 32.7 µM (inactive) | 70.6 µM (inactive) | 58.2 µM (inactive) | 29 µM (inactive) | 25.7 µM (inactive) | 29 µM (inactive) | 30.3 µM (inactive)
O=C(/C=C/c1ccccc1O)CC(=O)/C=C/c1ccccc1O | 4.26 µM (inactive) | 2.38 µM (inactive) | 10.3 µM (inactive) | 6.53 µM (inactive) | 4.21 µM (inactive) | 3.82 µM (inactive) | 12.8 µM (inactive) | > 10 µM (inactive) | 6.4 µM (inactive) | 11.8 µM (inactive) | > 10 µM (inactive) | 3.64 | 7.14 µM (inactive) | 4.93 µM (inactive) | 5.81 µM (inactive) | 3.95 µM (inactive) | 8.79 µM (inactive) | 5.73 µM (inactive) | 3.82 µM (inactive) | 9.84 µM (inactive)
CC[C@@]1(O)C(=O)OCc2c1cc1n(c2=O)Cc2c-1nc1ccccc1c2CC[Si](C)(C)C [COSITECAN] | < 0.01 µM (active) | < 0.01 µM (active) | < 0.0391 µM (active) | < 0.01 µM (active) | < 0.01 µM (active) | 0.0604 µM (active) | < 0.01 µM (active) | 0.0601 µM (active) | 0.0367 µM (active) | < 0.01 µM (active) | < 0.01 µM (active) | 0.0789 | < 0.01 µM (active) | < 0.01 µM (active) | 0.115 µM (active) | < 0.0383 µM (active) | 0.053 µM (active) | 0.0149 µM (active) | 0.0101 µM (active) | < 0.01 µM (active)
CCOP(=O)(O)C(Nc1ccc(/N=N/c2ccccc2)cc1)c1ccc(C(Nc2ccc(/N=N/c3ccccc3)cc2)P(=O)(O)OCC)cc1 (stereo not given) | 18.1 µM (inactive) | 18.3 µM (inactive) | 26.4 µM (inactive) | 18.9 µM (inactive) | 26.8 µM (inactive) | 75.7 µM (inactive) | 15.7 µM (inactive) | 22.4 µM (inactive) | 16.5 µM (inactive) | 18.5 µM (inactive) | 18.7 µM (inactive) | 19.7 | 29.7 µM (inactive) | 19.2 µM (inactive) | 22.1 µM (inactive) | 15.3 µM (inactive) | 18.2 µM (inactive) | 19.7 µM (inactive) | 19.6 µM (inactive) | 21.5 µM (inactive)
NNC1=N/C(=C\c2ccccc2O)C(=O)N1 | 33.3 µM (inactive) | 34.4 µM (inactive) | 49.2 µM (inactive) | 36 µM (inactive) | 20.7 µM (inactive) | 35.1 µM (inactive) | 27.2 µM (inactive) | 65.3 µM (inactive) | 35.5 µM (inactive) | 48.5 µM (inactive) | 31.7 µM (inactive) | 6.31 | 30.9 µM (inactive) | 48.1 µM (inactive) | > 100 µM (inactive) | 29.6 µM (inactive) | 63.8 µM (inactive) | 36.2 µM (inactive) | 28.1 µM (inactive) | 73.3 µM (inactive)
CCOC(=O)c1c(N2CCCC2)ncn(Cc2ccccc2)c1=S | > 100 µM (inactive) | > 100 µM (inactive) | > 100 µM (inactive) | > 100 µM (inactive) | > 100 µM (inactive) | > 100 µM (inactive) | > 100 µM (inactive) | > 100 µM (inactive) | > 100 µM (inactive) | > 100 µM (inactive) | > 100 µM (inactive) | > 100 | > 100 µM (inactive) | 63 µM (inactive) | 19.5 µM (inactive) | > 100 µM (inactive) | > 100 µM (inactive) | > 100 µM (inactive) | 87.5 µM (inactive) | > 100 µM (inactive)
Cn1c2ccccc2n2c3ccccc3c(=O)c(C#N)c12 | 12 µM (inactive) | 4.19 µM (inactive) | 55.6 µM (inactive) | 12.6 µM (inactive) | 6.01 µM (inactive) | > 100 µM (inactive) | > 75.3 µM (inactive) | > 70 µM (inactive) | 12 µM (inactive) | 19.2 µM (inactive) | 27.3 µM (inactive) | 6.62 | 4.94 µM (inactive) | 8.11 µM (inactive) | 15.3 µM (inactive) | 9.2 µM (inactive) | 48.8 µM (inactive) | 6.01 µM (inactive) | 9.79 µM (inactive) | 16.5 µM (inactive)
COc1cccc2c1C(=O)c1c(O)c3c(c(O)c1C2=O)CC(O)(C(O)CO)CC3OC1CC(N2CCOCC2)C(O)C(C)O1 (stereo not given) | 0.0047 µM (active) | < 0.001 µM (active) | 0.00338 µM (active) | 0.00206 µM (active) | 0.0277 µM (active) | 0.0023 µM (active) | 0.00295 µM (active) | 0.00475 µM (active) | 0.00551 µM (active) | 0.00315 µM (active) | 0.00362 µM (active) | 0.00353 | 0.00108 µM (active) | < 0.001 µM (active) | 0.065 µM (active) | 0.00177 µM (active) | 0.00422 µM (active) | 0.00279 µM (active) | 0.00412 µM (active) | 0.00404 µM (active)
CC(C)=CC(=O)Cc1nc2ccccc2[nH]c1=O | > 100 µM (inactive) | > 100 µM (inactive) | > 100 µM (inactive) | 64 µM (inactive) | 82.4 µM (inactive) | > 100 µM (inactive) | > 100 µM (inactive) | > 100 µM (inactive) | > 100 µM (inactive) | 76 µM (inactive) | > 100 µM (inactive) | > 100 | > 100 µM (inactive) | > 100 µM (inactive) | 22.4 µM (inactive) | > 100 µM (inactive) | > 100 µM (inactive) | > 100 µM (inactive) | > 100 µM (inactive) | > 100 µM (inactive)
